US20090143423A1, “SOLID DISPERSION PRODUCT CONTAINING N-ARYL UREA-BASED COMPOUND” (ABBOTT GMBH & CO. KG, priority 2007, published 2009)

Key:
[1] = Previously conducted human pharmacokinetics of ABT-102; format: in vivo; conditions: lipid-liquid formulation
Description: However, it is anticipated that the current spray dried formulation of the invention also achieves similar pharmacokinetic profile in humans.

[2] = Plasma concentration following multiple oral dosing in rat; format: in vivo, Sprague-Dawley rats; conditions: for AUC / Cmax / Tmax: mean; for half-life: harmonic mean
Experimental: A study was conducted to explore the ABT-102 plasma concentrations following multiple oral dosing in rat. In this study, a 10, 30 or 100 mg/kg/day oral dose was administered once daily for eight consecutive days. The compound was prepared as a suspension of the spray dried material in water at concentrations appropriate for a 20 ml/kg/day dose volume in each treatment group. The study was conducted in Sprague-Dawley rats (3 male, 3 female per dose group). Animals were permitted free access to food and water throughout the study. Plasma concentrations of parent drug were determined on the first (Day 1) and last (Day 8) of dosing.

in vivo = conditions: rat, po, 100 mg/kg
Experimental: A study was conducted to evaluate effect of aging on the ABT-102 bioavailability obtained from suspensions of the spray dried material. Suspensions were prepared by stirring in water for 15 minutes at room temperature (5 mg/ml concentration). The suspensions were then stored refrigerated until dosing. Suspensions aged for 1, 4 and 7 days were compared to a suspension freshly prepared on the morning of dosing. Each of the aged suspension was evaluated in a group of three rats at a dose of 100 mg/kg (20 ml/kg). All four test formulations were evaluated in the same study. Plasma concentrations of parent drug were determined by HPLC-MS/MS.

[3] = 10 mg/kg/day oral, Day 1, aqueous suspension of spray-dried dispersion of Example 4 (part B)
[4] = 10 mg/kg/day oral, Day 8, aqueous suspension of spray-dried dispersion of Example 4 (part B)
[5] = 30 mg/kg/day oral, Day 1, aqueous suspension of spray-dried dispersion of Example 4 (part B)
[6] = 30 mg/kg/day oral, Day 8, aqueous suspension of spray-dried dispersion of Example 4 (part B)
[7] = 100 mg/kg/day oral, Day 1, aqueous suspension of spray-dried dispersion of Example 4 (part B)
[8] = 100 mg/kg/day oral, Day 8, aqueous suspension of spray-dried dispersion of Example 4 (part B)
[9] = both sexes, Sprague-Dawley, plasma, po, 10 mg/kg/day, 10 mg/kg/day oral, Day 1, aqueous suspension of spray-dried dispersion of Example 4 (part B)
[10] = both sexes, Sprague-Dawley, plasma, po, 10 mg/kg/day, 10 mg/kg/day oral, Day 8, aqueous suspension of spray-dried dispersion of Example 4 (part B)
[11] = both sexes, Sprague-Dawley, plasma, po, 30 mg/kg/day, 30 mg/kg/day oral, Day 1, aqueous suspension of spray-dried dispersion of Example 4 (part B)
[12] = both sexes, Sprague-Dawley, plasma, po, 30 mg/kg/day, 30 mg/kg/day oral, Day 8, aqueous suspension of spray-dried dispersion of Example 4 (part B)
[13] = both sexes, Sprague-Dawley, plasma, po, 100 mg/kg/day, 100 mg/kg/day oral, Day 1, aqueous suspension of spray-dried dispersion of Example 4 (part B)
[14] = both sexes, Sprague-Dawley, plasma, po, 100 mg/kg/day, 100 mg/kg/day oral, Day 8, aqueous suspension of spray-dried dispersion of Example 4 (part B)

CC(C)(C)c1ccc2c(c1)CCC2NC(=O)Nc1cccc2[nH]ncc12 (stereo in doubt) [ABT-102, 1-((R)-5-tert-butyl-indan-1-yl)-3-(1H-indazol-4-yl)-urea]
pharmacokinetics (Cmax and AUC) versus dose [1]: dose proportional exposures | AUC/D [2, 3]: 0.918 μg · hr/mL per mg/kg | Cmax/D [2, 3]: 0.073 μg/mL per mg/kg | AUC ([2]; 10 mg/kg/day oral, Day 1, aqueous suspension of spray-dried dispersion of Example 4 (part B), 10 mg/kg/day): 9180 ng·h/mL | AUC/D [2, 4]: 0.725 μg · hr/mL per mg/kg | Cmax/D [2, 4]: 0.060 μg/mL per mg/kg | AUC ([2]; 10 mg/kg/day oral, Day 8, aqueous suspension of spray-dried dispersion of Example 4 (part B), 10 mg/kg/day): 7250 ng·h/mL | AUC/D [2, 5]: 0.741 μg · hr/mL per mg/kg | Cmax/D [2, 5]: 0.046 μg/mL per mg/kg | AUC ([2]; 30 mg/kg/day oral, Day 1, aqueous suspension of spray-dried dispersion of Example 4 (part B), 30 mg/kg/day): 22220 ng·h/mL | AUC/D [2, 6]: 0.498 μg · hr/mL per mg/kg | Cmax/D [2, 6]: 0.044 μg/mL per mg/kg | AUC ([2]; 30 mg/kg/day oral, Day 8, aqueous suspension of spray-dried dispersion of Example 4 (part B), 30 mg/kg/day): 14950 ng·h/mL | AUC/D [2, 7]: 0.326 μg · hr/mL per mg/kg | Cmax/D [2, 7]: 0.021 μg/mL per mg/kg | AUC ([2]; 100 mg/kg/day oral, Day 1, aqueous suspension of spray-dried dispersion of Example 4 (part B), 100 mg/kg/day): 32610 ng·h/mL | AUC/D [2, 8]: 0.362 μg · hr/mL per mg/kg | Cmax/D [2, 8]: 0.026 μg/mL per mg/kg | AUC ([2]; 100 mg/kg/day oral, Day 8, aqueous suspension of spray-dried dispersion of Example 4 (part B), 100 mg/kg/day): 36180 ng·h/mL | half-life [2, 9]: 5.9 h | Cmax [2, 9]: 730 ng/mL | Tmax [2, 9]: 2.3 h | AUC ([2]; both sexes, Sprague-Dawley, plasma, po, 10 mg/kg/day, 10 mg/kg/day oral, Day 1, aqueous suspension of spray-dried dispersion of Example 4 (part B), read-out: AUC): 9200 ng·h/mL | half-life [2, 10]: 5.4 h | Cmax [2, 10]: 600 ng/mL | Tmax [2, 10]: 3.3 h | AUC ([2]; both sexes, Sprague-Dawley, plasma, po, 10 mg/kg/day, 10 mg/kg/day oral, Day 8, aqueous suspension of spray-dried dispersion of Example 4 (part B), read-out: AUC): 7300 ng·h/mL | half-life [2, 11]: 7.8 h | Cmax [2, 11]: 1390 ng/mL | Tmax [2, 11]: 3 h | AUC ([2]; both sexes, Sprague-Dawley, plasma, po, 30 mg/kg/day, 30 mg/kg/day oral, Day 1, aqueous suspension of spray-dried dispersion of Example 4 (part B), read-out: AUC): 22200 ng·h/mL | half-life [2, 12]: 5.3 h | Cmax [2, 12]: 1320 ng/mL | Tmax [2, 12]: 3.3 h | AUC ([2]; both sexes, Sprague-Dawley, plasma, po, 30 mg/kg/day, 30 mg/kg/day oral, Day 8, aqueous suspension of spray-dried dispersion of Example 4 (part B), read-out: AUC): 15000 ng·h/mL | half-life [2, 13]: 6.3 h | Cmax [2, 13]: 2130 ng/mL | Tmax [2, 13]: 5 h | AUC ([2]; both sexes, Sprague-Dawley, plasma, po, 100 mg/kg/day, 100 mg/kg/day oral, Day 1, aqueous suspension of spray-dried dispersion of Example 4 (part B), read-out: AUC): 32600 ng·h/mL | half-life [2, 14]: 5.6 h | Cmax [2, 14]: 2610 ng/mL | Tmax [2, 14]: 4.5 h | AUC ([2]; both sexes, Sprague-Dawley, plasma, po, 100 mg/kg/day, 100 mg/kg/day oral, Day 8, aqueous suspension of spray-dried dispersion of Example 4 (part B), read-out: AUC): 36200 ng·h/mL | AUC (in vivo; AUC): 12400 ng·h/mL | Cmax (in vivo; Cmax): 1160 ng/mL | Tmax (in vivo; Tmax): 4.3 h | half-life (in vivo; t1/2): 4.4 h
